System: not given
Assay: not given
Details: not given

melting point [°C] | Compound
255 to 256 | Cc1nc(-c2cnc3[nH]cc(C(=O)N[C@@H](C(=O)N4CC(C#N)C4)C4CC4)c3n2)cn1CC(F)(F)F [Example I-165, 2-[2-Methyl-1-(2,2,2-trifluoro-ethyl)-1H-imidazol-4-yl]-5H-pyrrolo[2,3-b]pyrazine-7-carboxylic acid [(R)-2-(3-cyano-azetidin-1-yl)-1-cyclopropyl-2-oxo-ethyl]-amide]
171 to 172.1 | CC(C)[C@@H](NC(=O)c1c[nH]c2ncc(C3CC3)nc12)C(=O)N1CCCC1 [Example 24, 2-Cyclopropyl-5H-pyrrolo[2,3-b]pyrazine-7-carboxylic acid [(R)-2-methyl-1-(pyrrolidine-1-carbonyl)-propyl]-amide]
175 to 180 | CN(C)c1ccc(-c2cnc3[nH]cc(C(=O)N[C@@H](C(=O)N4CC(C#N)C4)C4CC4)c3n2)cc1 [Example 146, 2-(4-Dimethylamino-phenyl)-5H-pyrrolo[2,3-b]pyrazine-7-carboxylic acid [(R)-2-(3-cyano-azetidin-1-yl)-1-cyclopropyl-2-oxo-ethyl]-amide]
178 to 185 | CN1CCN(c2ccc(-c3cnc4[nH]cc(C(=O)N[C@@H](C(=O)N5CC(C#N)C5)C5CC5)c4n3)cc2)CC1 [Example 144, 2-[4-(4-Methyl-piperazin-1-yl)-phenyl]-5H-pyrrolo[2,3-b]pyrazine-7-carboxylic acid [(R)-2-(3-cyano-azetidin-1-yl)-1-cyclopropyl-2-oxo-ethyl]-amide]
207 to 209 | N#CC1CN(C(=O)[C@H](NC(=O)c2c[nH]c3ncc(-c4ccc(C(F)(F)F)cc4)nc23)C2CC2)C1 [Example 142, 2-(4-Trifluoromethyl-phenyl)-5H-pyrrolo[2,3-b]pyrazine-7-carboxylic acid [(R)-2-(3-cyano-azetidin-1-yl)-1-cyclopropyl-2-oxo-ethyl]-amide]
171 to 176 | Cc1nc(-c2cnc3[nH]cc(C(=O)N[C@@H](C(=O)N4CC(C#N)C4)C(C)(C)C)c3n2)cn1-c1cccc(F)c1 [Example 137, 2-[1-(3-Fluorophenyl)-2-methyl-1H-imidazol-4-yl]-5H-pyrrolo[2,3-b]pyrazine-7-carboxylic acid [(R)-1-(3-cyano-azetidine-1-carbonyl)-2,2-dimethyl-propyl]-amide]
200 to 202 | N#CC1CN(C(=O)[C@H](NC(=O)c2c[nH]c3ncc(-c4ccccc4)nc23)C2CC2)C1 [Example 147, 2-Phenyl-5H-pyrrolo[2,3-b]pyrazine-7-carboxylic acid [(R)-2-(3-cyano-azetidin-1-yl)-1-cyclopropyl-2-oxo-ethyl]-amide]
218 to 220 | CCn1cc(-c2cnc3[nH]cc(C(=O)N[C@@H](C(=O)N4CCCC4)C4(C)CC4)c3n2)cn1 [Example I-34, 2-(1-Ethyl-1H-pyrazol-4-yl)-5H-pyrrolo[2,3-b]pyrazine-7-carboxylic acid [(R)-1-(1-methyl-cyclopropyl)-2-oxo-2-pyrrolidin-1-yl-ethyl]-amide]
201 to 203 | CC(C)(C)[C@@H](NC(=O)c1c[nH]c2ncc(C3CC3)nc12)C(=O)N1CCCC1 [Example 1, 2-Cyclopropyl-5H-pyrrolo[2,3-b]pyrazine-7-carboxylic acid [(R)-2,2-dimethyl-1-(pyrrolidine-1-carbonyl)-propyl]-amide]
228 to 230 | CCn1cc(-c2cnc3[nH]cc(C(=O)N[C@@H](C(=O)N4CCC(C)(C#N)C4)C(C)(C)C)c3n2)cn1 (stereo partly drawn) [Example I-28, 2-(1-Ethyl-1H-pyrazol-4-yl)-5H-pyrrolo[2,3-b]pyrazine-7-carboxylic acid [(R)-1-(3-cyano-3-methyl-pyrrolidine-1-carbonyl)-2,2-dimethyl-propyl]-amide]
254 to 256 | O=C(N[C@@H](C(=O)N1CCCC1)C1CC1)c1c[nH]c2ncc(C3CC3)nc12 [Example 25, 2-Cyclopropyl-5H-pyrrolo[2,3-b]pyrazine-7-carboxylic acid ((R)-1-cyclopropyl-2-oxo-2-pyrrolidin-1-yl-ethyl)-amide]
183 to 185 | CC(C)[C@@H](NC(=O)c1c[nH]c2ncc(C3CC3)nc12)C(=O)N1CCCCC1 [Example 26, 2-Cyclopropyl-5H-pyrrolo[2,3-b]pyrazine-7-carboxylic acid [(R)-2-methyl-1-(piperidine-1-carbonyl)-propyl]-amide]
249 to 251 | CC(C)(C)[C@@H](NC(=O)c1c[nH]c2ncc(C3CC3)nc12)C(=O)N1CCC(C#N)CC1 [Example 11, 2-Cyclopropyl-5H-pyrrolo[2,3-b]pyrazine-7-carboxylic acid [(R)-1-(4-cyano-piperidine-1-carbonyl)-2,2-dimethyl-propyl]-amide]
210 to 212 | CCn1cc(-c2cnc3[nH]cc(C(=O)N[C@@H](C(=O)N4CCCC4)C4CC4)c3n2)cn1 [Example 4, 2-(1-Ethyl-1H-pyrazol-4-yl)-5H-pyrrolo[2,3-b]pyrazine-7-carboxylic acid ((R)-1-cyclopropyl-2-oxo-2-pyrrolidin-1-yl-ethyl)-amide]
175 to 179 | Cc1nc(-c2cnc3[nH]cc(C(=O)N[C@@H](C(=O)N4CC(C#N)C4)C4CC4)c3n2)cn1-c1ccccc1
186 to 192 | N#CC1CN(C(=O)[C@H](NC(=O)c2c[nH]c3ncc(-c4ccc(N5CCOCC5)cc4)nc23)C2CC2)C1 [Example 145, 2-(4-Morpholin-4-yl-phenyl)-5H-pyrrolo[2,3-b]pyrazine-7-carboxylic acid [(R)-2-(3-cyano-azetidin-1-yl)-1-cyclopropyl-2-oxo-ethyl]-amide]
154 to 156 | CC(C)[C@@H](NC(=O)c1c[nH]c2ncc(C3CC3)nc12)C(=O)N1CCOCC1 [Example 27, 2-Cyclopropyl-5H-pyrrolo[2,3-b]pyrazine-7-carboxylic acid [(R)-2-methyl-1-(morpholine-4-carbonyl)-propyl]-amide]
187 to 190 | Cc1nc(-c2cnc3[nH]cc(C(=O)N[C@@H](C(=O)N4CC(C#N)C4)C(C)(C)C)c3n2)cn1-c1cc(F)cc(F)c1 [Example 136, 2-[1-(3,5-Difluoro-phenyl)-2-methyl-1H-imidazol-4-yl]-5H-pyrrolo[2,3-b]pyrazine-7-carboxylic acid [(R)-1-(3-cyano-azetidine-1-carbonyl)-2,2-dimethyl-propyl]-amide]

Target: T1, h-jak3(810-1124) (JAK3: Recombinant human kinase domain) (Homo sapiens, UniProt P52333)
T1 construct: jak3(810- 1124)-sf9-c; made in house; host or cells: Sf9
T1 sequence (P52333 810-1124): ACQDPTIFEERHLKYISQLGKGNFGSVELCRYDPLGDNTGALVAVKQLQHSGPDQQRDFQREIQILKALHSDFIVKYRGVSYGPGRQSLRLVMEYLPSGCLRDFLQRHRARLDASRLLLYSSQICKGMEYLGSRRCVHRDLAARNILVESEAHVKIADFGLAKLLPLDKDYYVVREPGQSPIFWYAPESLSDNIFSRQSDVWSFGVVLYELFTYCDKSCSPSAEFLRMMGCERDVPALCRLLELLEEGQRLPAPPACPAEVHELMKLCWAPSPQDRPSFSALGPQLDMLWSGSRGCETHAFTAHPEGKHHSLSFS
Assay: Determination of IC50 of Janus Kinase (JAK) inhibition: JAK3 radioactive end-point 33P-ATP kinase assay
Format: biochemical
Details: no additive; ATP 1.5 uM, peptide 50 uM, 20 minutes, room temperature; read-out: Ic50 h-jak3(810-1124)-sf9-c: no additive

IC50 [nM] | Compound
0.68 | Cc1nc(-c2cnc3[nH]cc(C(=O)N[C@@H](C(=O)N4CC(C#N)C4)C4CC4)c3n2)cn1CC(F)(F)F [Example I-165, 2-[2-Methyl-1-(2,2,2-trifluoro-ethyl)-1H-imidazol-4-yl]-5H-pyrrolo[2,3-b]pyrazine-7-carboxylic acid [(R)-2-(3-cyano-azetidin-1-yl)-1-cyclopropyl-2-oxo-ethyl]-amide]
0.87 | CCn1cc(-c2cnc3[nH]cc(C(=O)N[C@@H](C(=O)N4CCCC4)C4(C)CC4)c3n2)cn1 [Example I-34, 2-(1-Ethyl-1H-pyrazol-4-yl)-5H-pyrrolo[2,3-b]pyrazine-7-carboxylic acid [(R)-1-(1-methyl-cyclopropyl)-2-oxo-2-pyrrolidin-1-yl-ethyl]-amide]
0.51 | CCn1cc(-c2cnc3[nH]cc(C(=O)N[C@@H](C(=O)N4CCC(C)(C#N)C4)C(C)(C)C)c3n2)cn1 (stereo partly drawn) [Example I-28, 2-(1-Ethyl-1H-pyrazol-4-yl)-5H-pyrrolo[2,3-b]pyrazine-7-carboxylic acid [(R)-1-(3-cyano-3-methyl-pyrrolidine-1-carbonyl)-2,2-dimethyl-propyl]-amide]

From patent publication US8518945B2, “Pyrrolopyrazine kinase inhibitors” (Hoffmann-La Roche Inc., priority 2010, dated 2013)
